# Activity calls are given as the source filed them. Rule as the data show it, for most assays here: actives have a measured EC50 and inactives only a lower limit.
# Assays:
# [1] = system: P388/ADR; assay: cells; format: functional; settings: Mus musculus, P388/ADR
# [2] = system: P388; assay: cells; format: functional; settings: Mus musculus, P388
# [3] = system: SN12K1; assay: cells; format: functional; settings: Homo sapiens, SN12K1
# [4] = HIV-1 AD8 envelope cell-cell fusion blockers – cherry-pick, dose response (AID 652062); format: functional, cell-based;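 also: luciferase signal from cell-cell fusion driven by HIV-1 clade B AD8 Env; potency is for inhibitors of fusion seen as a drop in luminescence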
# [5] = target: Luciferin 4-monooxygenase (Photinus pyralis, UniProt P08659); assay: inhibition of purified Photinus pyralis luciferase – biochemical, luminescence, dose response (AID 1891)
# Sequence of Luciferin 4-monooxygenase (P08659 whole entry): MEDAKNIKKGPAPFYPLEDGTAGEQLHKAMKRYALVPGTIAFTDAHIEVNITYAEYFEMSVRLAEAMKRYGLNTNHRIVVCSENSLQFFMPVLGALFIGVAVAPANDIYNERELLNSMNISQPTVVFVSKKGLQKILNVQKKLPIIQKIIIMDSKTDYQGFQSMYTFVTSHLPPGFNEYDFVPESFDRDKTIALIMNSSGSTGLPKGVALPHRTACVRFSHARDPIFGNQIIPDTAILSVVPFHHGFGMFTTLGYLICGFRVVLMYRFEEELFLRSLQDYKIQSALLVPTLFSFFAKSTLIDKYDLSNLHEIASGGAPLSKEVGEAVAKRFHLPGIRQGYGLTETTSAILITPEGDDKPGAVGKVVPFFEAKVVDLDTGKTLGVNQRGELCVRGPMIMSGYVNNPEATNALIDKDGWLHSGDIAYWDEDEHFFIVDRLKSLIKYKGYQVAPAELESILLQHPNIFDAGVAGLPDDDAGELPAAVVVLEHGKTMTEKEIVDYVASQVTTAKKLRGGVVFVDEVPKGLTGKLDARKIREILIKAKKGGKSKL
# [6] = Luminescence Cell-Based Dose Confirmation HTS to Identify Inhibitors of Platelet Dense Granule Release. [Related pubchem assays: 1663 (Primary HTS), 1678 (Summary of Project)]; format: functional
# [7] = NIH-3T3 fibroblast cytotoxicity, dose response, cytotoxicity control, cell-based, fluorescence, Alamar Blue, secondary assay (AID 2327); format: functional;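 also: NIH-3T3 mouse fibroblasts cultured with fluconazole at 8 µg/mL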
# [8] = fluconazole-exposed Candida albicans growth modulators – fluorescence, retest, confirmation (AID 2467); format: functional, cell-based
# [9] = target: Cytochrome P450 3A4 (Homo sapiens, UniProt P08684);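 also: CYP3A4 tested as one member of a cytochrome P450 panel screen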
# Sequence of Cytochrome P450 3A4 (P08684 whole entry): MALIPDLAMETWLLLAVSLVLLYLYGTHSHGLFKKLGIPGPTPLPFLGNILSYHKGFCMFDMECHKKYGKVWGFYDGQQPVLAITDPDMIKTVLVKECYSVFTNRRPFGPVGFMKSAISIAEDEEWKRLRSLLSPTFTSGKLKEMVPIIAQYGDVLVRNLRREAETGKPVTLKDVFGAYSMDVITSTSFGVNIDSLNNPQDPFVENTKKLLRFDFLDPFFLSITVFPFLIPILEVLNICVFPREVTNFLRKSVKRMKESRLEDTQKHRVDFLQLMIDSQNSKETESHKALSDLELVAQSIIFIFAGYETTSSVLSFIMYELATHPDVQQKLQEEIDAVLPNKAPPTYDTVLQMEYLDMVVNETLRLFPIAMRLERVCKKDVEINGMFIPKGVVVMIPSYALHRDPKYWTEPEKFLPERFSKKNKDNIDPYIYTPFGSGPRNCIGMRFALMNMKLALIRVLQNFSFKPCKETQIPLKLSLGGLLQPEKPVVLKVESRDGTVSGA
# [10] = target: T1, Streptokinase A (Streptococcus pyogenes serotype M1, UniProt P10520); assay: viability-normalized secreted streptokinase activity reduction – plasminogen activation absorbance, OD405, dose response (AID 1914); format: functional, Streptococcus pyogenes M1 GAS;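 also: secreted streptokinase activity via plasminogen activation per viability signal from cell pellet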
# T1 sequence (P10520 whole entry): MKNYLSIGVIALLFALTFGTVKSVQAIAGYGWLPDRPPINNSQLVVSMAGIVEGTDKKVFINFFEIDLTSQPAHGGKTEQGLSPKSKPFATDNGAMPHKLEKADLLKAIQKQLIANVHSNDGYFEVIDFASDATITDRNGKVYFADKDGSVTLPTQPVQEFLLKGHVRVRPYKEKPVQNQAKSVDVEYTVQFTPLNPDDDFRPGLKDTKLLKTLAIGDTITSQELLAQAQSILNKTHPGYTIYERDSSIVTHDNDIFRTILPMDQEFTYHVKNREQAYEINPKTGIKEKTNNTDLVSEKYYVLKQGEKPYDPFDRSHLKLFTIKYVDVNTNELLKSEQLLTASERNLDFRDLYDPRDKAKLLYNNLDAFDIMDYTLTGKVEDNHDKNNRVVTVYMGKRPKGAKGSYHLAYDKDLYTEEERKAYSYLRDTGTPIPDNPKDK
# [11] = system: BJ; assay: cells; format: functional, cell-based; settings: Homo sapiens
# [12] = system: BJ; assay: BJ-TERT fibroblast viability loss – cell-based, RAS-independent, luminescence, dose response (AID 1933); format: functional; settings: Homo sapiens
# [13] = Luminescence Cell-Based Dose Response HTS to Identify Inhibitors of 5'UTR Stem-Loop Driven Prion Protein mRNA Translation in H4 Neuroglioblastoma Cells. [Related pubchem assays: 1827 (Project Summary), 1813 (Primary HTS)]; format: functional
# [14] = DRD fibroblast viability loss – cell-based, non-viral oncogenic, luminescence, dose response (AID 1934); format: functional; settings: Homo sapiens
# [15] = system: Streptococcus sp. 'group A'; assay: Streptococcus pyogenes SK(-)GAS viability under kanamycin – luminescence, BacTiterGlo, confirmation, counter-screen for streptokinase expression inhibitor project, dose response (AID 1900); format: functional, organism-based
# [16] = system: Streptococcus; assay: GAS UMAA2166 growth inhibition – luminescence, BacTiterGlo, counter-screen for streptokinase expression inhibitor project, dose response (AID 1915); format: functional, organism-based;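 also: potency for reduction of bacterial viability or growth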
# [17] = luciferase reporter signal suppression in cells – H4 neuroglioma cells, luminescence, dose response (AID 1990); format: functional, cell-based
# [18] = system: BJ; assay: BJ-TERT-LT-ST fibroblast viability loss – cell-based, RAS-independent, luminescence, dose response (AID 1935); format: functional; settings: Homo sapiens;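 also: BJ fibroblasts immortalized with TERT plus LT and ST oncogenes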
# [19] = alpha-synuclein stem-loop luciferase translation blockers – H4 neuroglioma cells, luminescence, confirmation (AID 1988); format: functional, cell-based
# [20] = Luminescence Cell-Based Dose Response HTS to Identify Activators of Luciferase Translation or Activity in H4 […] Cells. [Related pubchem assays: 1829 (Project Summary), 1814 (Primary HTS)]; format: functional
# [21] = target: Cytochrome P450 2D6 (Homo sapiens, UniProt P10635);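 also: CYP2D6 member of a cytochrome P450 panel assay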
# Sequence of Cytochrome P450 2D6 (P10635 whole entry): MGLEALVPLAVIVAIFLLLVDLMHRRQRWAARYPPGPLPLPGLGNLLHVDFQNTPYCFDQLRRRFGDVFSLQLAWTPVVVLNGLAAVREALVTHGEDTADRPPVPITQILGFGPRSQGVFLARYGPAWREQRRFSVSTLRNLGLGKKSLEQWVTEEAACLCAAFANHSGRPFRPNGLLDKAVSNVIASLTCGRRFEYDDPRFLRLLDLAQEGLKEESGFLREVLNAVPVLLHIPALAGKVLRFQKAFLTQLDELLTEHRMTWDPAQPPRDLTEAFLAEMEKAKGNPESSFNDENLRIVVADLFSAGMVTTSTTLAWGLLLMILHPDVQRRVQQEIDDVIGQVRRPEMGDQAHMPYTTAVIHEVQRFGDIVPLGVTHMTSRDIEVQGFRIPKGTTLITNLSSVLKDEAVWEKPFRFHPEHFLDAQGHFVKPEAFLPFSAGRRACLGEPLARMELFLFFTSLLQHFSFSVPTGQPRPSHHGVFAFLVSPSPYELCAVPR
compound,measurement,setting,value
O=C(O)CCC(NC(=O)c1ccc(Nc2nc3cc(C(F)(F)F)ccc3nc2-c2ccccc2)cc1)C(=O)O (stereo unspecified),GI50,[1],38.5 µM (inactive)
same,GI50,[2],26.5 µM (inactive)
same,GI50,[3],48.2 µM (inactive)
Cc1ccc(-n2nnnc2SCn2nnc3ccccc3c2=O)c(C)c1,AC50,[4],30.1 µM (active)
OCC1OC(n2cnc3c(NC4CCCC4)ncnc32)C(O)C1O (stereo unspecified),EC50,[5],> 112 µM (not active)
same,EC50,[6],1.09 µM (active)
COc1cc2c(cc1OC)C(C(c1ccccc1)c1ccccc1)N(C)CC2 (stereo unspecified),GI50,[1],41.6 µM (inactive)
same,GI50,[2],24.5 µM (inactive)
same,GI50,[3],32.6 µM (inactive)
CCn1c(O)c(N=NC(=O)c2ccc(CSc3nncn3C)cc2)c2ccccc21,EC50,[5],> 112 µM (not active)
same,EC50,[6],> 112 µM (not active)
CCCC(O)(CCC)C(=O)NNc1ccc(C)cc1,EC50,[7],> 160 µM (inconclusive)
same,EC50,[8],> 38 µM (not active)
C[C@H](NC[C@H](O)CP(=O)(O)CC1CCCCC1)c1ccc(Cl)c(Cl)c1,AC50,[9],31.6 µM (inconclusive)
CSc1nc(Oc2ccc3ccccc3c2)c2sccc2n1,EC50,[10],39.1 µM (active)
same,EC50,[11],52.3 µM (active)
same,EC50,[12],12.5 µM (active)
same,EC50,[13],> 120 µM (not active)
same,EC50,[14],12.8 µM (inconclusive)
same,EC50,[15],34.3 µM (active)
same,EC50,[16],> 150 µM (not active)
same,EC50,[17],12.9 µM (active)
same,EC50,[18],13.6 µM (inconclusive)
same,EC50,[19],8.16 µM (active)
CCC(=O)Nc1cccc(-c2nnc(SCC(=O)c3ccccc3)n2C)c1,EC50,[20],47.5 µM (active)
COc1ccc(C(O)c2nc3ccccc3n2C)cc1OC (stereo unspecified),AC50,[4],3.4 µM (active)
CCOc1ccc(OCc2ccc(C(=O)NCc3cccnc3)o2)cc1,EC50,[5],> 112 µM (not active)
same,AC50,[21],1.26 µM (inconclusive)
same,EC50,[6],> 112 µM (not active)
O=C1C=C2SC3C[C@@]24CC1[N+]1=c2c4c(c(O)c4c2=C(C=N4)CC1)N3,GI50,[1],6.35 µM (inactive)
same,GI50,[2],1.83 µM (inactive)
same,GI50,[3],1.94 µM (inactive)
CC(C)c1ccc(C(=O)OC2CCOC2=O)cc1 (stereo unspecified),EC50,[5],> 112 µM (not active)
same,EC50,[6],> 112 µM (not active)
CC(=O)c1ncnn1CC(=O)c1ccc(Cl)cc1Cl,EC50,[7],21.9 µM (inconclusive)
same,EC50,[8],1.37 µM (active)
COC(=O)[C@H]1C[C@@H]1[C@H](NC(=O)OCc1ccccc1)c1ccccc1,AC50,[9],25.1 µM (inconclusive)
CCCCCCN1C=CC(=C/C=C(\C#N)C(=O)OCC)C=C1,AC50,[9],15.8 µM (inconclusive)
same,AC50,[21],14.1 µM (inconclusive)
CCc1cc(=O)oc2cc(C)cc(OCC(=O)NCc3cccnc3)c12,EC50,[5],> 112 µM (not active)
same,EC50,[6],> 112 µM (not active)
NC1=NC(=O)/C(=C2\CCNC(=O)c3[nH]c(Br)cc32)N1 [HYMENIALDISINE],GI50,[1],7.28 µM (inactive)
same,GI50,[2],3.97 µM (inactive)
same,GI50,[3],12.3 µM (inactive)
O=C(COc1ccc(C(=O)c2ccccc2)cc1)NC1CCCCC1,EC50,[5],> 112 µM (not active)
same,EC50,[6],> 112 µM (not active)

# Source: ChEMBL document CHEMBL1201862, “PubChem BioAssay data set” (2004)
